Test systems include BT-549 breast; NCI-H460 lung; OVCAR-5 ovarian; A498 renal; HOP-62 NSCLC; SR leukemia.
What all share (assay): NCI anticancer screen, dose series, 48 h

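Compound exposure: 48 hours, 5 concentrations, 96-well plates. TGI: concentration producing complete growth inhibition.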

`O=C1NC(=O)C2(CCCCCC2)N1`: the TGI in the assay with BT-549 breast, in the assay on NCI-H460 lung, in the assay on OVCAR-5 ovarian, with A498 renal and in the assay with HOP-62 NSCLC was more than 100 µM in each case.

`CC(C)=NNC=N/C(C#N)=C(\N)C#N`: the TGI with SR leukemia, in the assay with BT-549 breast, in the assay with NCI-H460 lung, in the assay on OVCAR-5 ovarian and with HOP-62 NSCLC was more than 100 µM throughout.

In the case of `CC(NC(=O)C(N)CC(=O)O)NC(=O)C1CCC1` (stereo unspecified), the TGI with BT-549 breast, in the assay on NCI-H460 lung, with OVCAR-5 ovarian, in the assay with A498 renal and with HOP-62 NSCLC was more than 100 µM each time.

`Nc1cc(N2CCCC2)nc(=O)n1-c1ccccc1`: the TGI with SR leukemia, in the assay on BT-549 breast, with NCI-H460 lung, with OVCAR-5 ovarian and in the assay on HOP-62 NSCLC was more than 100 µM in each case.

Turning to `COCCCNC(=O)C1=C(C)NC(C)=C(C(=O)NCCCOC)C1`, the TGI in the assay with SR leukemia, in the assay with NCI-H460 lung, in the assay on OVCAR-5 ovarian, in the assay with A498 renal and in the assay with HOP-62 NSCLC was more than 100 µM each time.

Take `Cc1nc(N/N=C/c2ccccc2Cl)[nH]c(=O)c1CCO`: the TGI was more than 100 µM in the assay with SR leukemia; more than 100 µM in the assay with BT-549 breast; more than 100 µM in the assay with NCI-H460 lung; more than 100 µM with OVCAR-5 ovarian; 50.4 µM in the assay on HOP-62 NSCLC.

Turning to `CCOC(=O)[C@@]12C[C@](/C=C/OC)(O[Si](C)(C)C)[C@@]13c1cc(OC)c(OC)cc1CCN3C(=O)C2O` (stereo partly specified), the TGI with SR leukemia, in the assay with NCI-H460 lung, with OVCAR-5 ovarian, in the assay on A498 renal and with HOP-62 NSCLC was more than 100 µM each time.

Turning to `O=C(O)c1ccc(NC(NC(=O)C(C(F)(F)F)C(F)(F)F)(C(F)(F)F)C(F)(F)F)cc1`, the TGI in the assay with SR leukemia, in the assay with BT-549 breast, in the assay on OVCAR-5 ovarian and in the assay with A498 renal was more than 100 µM throughout.

With `CC(=O)Nc1ccc(-c2nc3ccccc3s2)cc1I`, the TGI in the assay on SR leukemia is more than 100 µM; in the assay with BT-549 breast it was 81 µM; in the assay on NCI-H460 lung, more than 100 µM; with A498 renal it was 36.3 µM; in the assay with HOP-62 NSCLC, 39 µM.

As to `CNC(=O)N(CCC#N)CCCN(C(=O)NC)c1ccccc1`, the TGI in the assay on SR leukemia, in the assay with BT-549 breast, with NCI-H460 lung, in the assay with OVCAR-5 ovarian and in the assay on HOP-62 NSCLC was more than 100 µM in each case.

In the case of `C[C@]12CC/C(=N\O)C=C1CC[C@@H]1[C@@H]2CC[C@]2(C)C(=N/O)/C(=C/c3ccc([N+](=O)[O-])cc3)C[C@@H]12`, the TGI with SR leukemia was 9.26 µM; in the assay on BT-549 breast, 14.3 µM; in the assay on NCI-H460 lung, more than 100 µM; in the assay on A498 renal it was 45.4 µM; with HOP-62 NSCLC it was more than 100 µM.

With `COC(=O)/C=C1/CCC(C)(C(=O)NS(=O)(=O)c2ccc(C)cc2)C1(C)C` (stereo unspecified), the TGI with BT-549 breast, in the assay with NCI-H460 lung, in the assay with OVCAR-5 ovarian, with A498 renal and in the assay on HOP-62 NSCLC was more than 100 µM in each case.

As for `COc1ccc(OCc2ccc3nc(-c4ccccc4)c(Cl)nc3c2)cc1`, the TGI in the assay with SR leukemia is more than 100 µM; in the assay on NCI-H460 lung, more than 100 µM; in the assay on OVCAR-5 ovarian, more than 100 µM; in the assay on A498 renal, 81.2 µM; in the assay on HOP-62 NSCLC, 28.6 µM.

Regarding `NC(=S)N/N=C1\NC(=O)/C(=C/c2ccc3c(c2)OCO3)S1`, the TGI was 84.7 µM with BT-549 breast; more than 100 µM with NCI-H460 lung; 73.1 µM in the assay on OVCAR-5 ovarian; 30.3 µM in the assay on A498 renal; 51.5 µM in the assay on HOP-62 NSCLC.

As to `CC1Oc2c(c(=O)oc3ccccc23)[C@@]1(C)CC1C[C@H](C)C(=O)O1` (stereo partly specified), the TGI is 71.8 µM in the assay on BT-549 breast, more than 100 µM with OVCAR-5 ovarian, more than 100 µM in the assay with A498 renal and more than 100 µM in the assay with HOP-62 NSCLC.

For `CC(=O)CSc1c(-c2ccccc2)c(=O)n(-c2ccccc2)c(=S)n1-c1ccccc1`, the TGI in the assay on SR leukemia, in the assay on BT-549 breast, in the assay with NCI-H460 lung, in the assay with OVCAR-5 ovarian and with HOP-62 NSCLC was more than 100 µM each time.

With `Cc1ccc(S(=O)(=O)N2CCSCCN(S(=O)(=O)c3ccc(C)cc3)CCN(S(=O)(=O)c3ccc(C)cc3)CC2)cc1`, the TGI in the assay on BT-549 breast was 70.5 µM; in the assay with NCI-H460 lung, more than 100 µM; in the assay with OVCAR-5 ovarian, more than 100 µM; in the assay on A498 renal, more than 100 µM; in the assay with HOP-62 NSCLC, 69 µM.

As for `Cc1ncc2c(=O)c3c(oc2n1)c1ccccc1n3Cc1ccccc1`, the TGI was more than 100 µM in the assay on SR leukemia; more than 100 µM in the assay with BT-549 breast; more than 100 µM in the assay on NCI-H460 lung; more than 100 µM in the assay with OVCAR-5 ovarian; 79.5 µM in the assay with HOP-62 NSCLC.

As to `CCOC(=O)c1cnc2n(c1=N)[C@H]1CCCC[C@@H]1N2`, the TGI in the assay with SR leukemia, with BT-549 breast, with NCI-H460 lung, in the assay on OVCAR-5 ovarian and in the assay on A498 renal was more than 100 µM throughout.

In the case of `CCCCCCCCCCCCCCCCOCC(Cl)COP(=O)(O)OP(=O)(O)OCC1OC(n2cc(C)c(=O)[nH]c2=O)CC1O` (stereo unspecified), the TGI in the assay on BT-549 breast, with NCI-H460 lung, in the assay with OVCAR-5 ovarian, in the assay with A498 renal and in the assay with HOP-62 NSCLC was more than 100 µM throughout.

As for `CC(C)(C)Nc1noc(=O)n1C(C)(C)C`, the TGI in the assay with SR leukemia, in the assay with NCI-H460 lung, with OVCAR-5 ovarian, in the assay on A498 renal and in the assay with HOP-62 NSCLC was more than 100 µM each time.

For the compound `C[n+]1c(-c2ccc(/C=N/NC(=O)C(=O)N/N=C/c3ccc(-c4cn5ccsc5[n+]4C)cc3)cc2)cn2ccsc21`, the TGI with SR leukemia, in the assay with NCI-H460 lung, in the assay with OVCAR-5 ovarian and with HOP-62 NSCLC was more than 100 µM throughout.

As for `CC(=O)Nc1cc2c3c(c1)CCCN3CCC2`, the TGI in the assay with SR leukemia, with BT-549 breast, in the assay with NCI-H460 lung, in the assay with OVCAR-5 ovarian and in the assay on A498 renal was more than 100 µM in each case.

With `c1ccc(-n2nc3ccc4nonc4c3n2)cc1`, the TGI in the assay on SR leukemia, in the assay with NCI-H460 lung, in the assay with OVCAR-5 ovarian and in the assay on HOP-62 NSCLC was more than 100 µM in each case.

For the origin of these results see PubChem BioAssay (NCI).
